Source: patent publication US11787799B2 (priority 2015, dated 2023)

What was measured:
Measles = test: microbe, parasite or virus in culture; format: cell-based; conditions: Measles morbillivirus, Vero 76, read-out: EC50 Measles
in vitro [1] = conditions: African green monkey
in vitro [2] = conditions: African green monkey; remark: listed apart in the source
Yellow Fever Virus = test: microbe, parasite or virus in culture; format: cell-based; conditions: Yellow fever virus, Vero, read-out: EC50 Yellow Fever Virus
Rift Valley virus = test: organism not typed; format: cell-based; conditions: Vero 76, read-out: EC50 Rift Valley virus
[3] = tested on: RSV (resp syncitial virus); test: microbe, parasite or virus in culture; format: cell-based; conditions: human respiratory syncytial virus, MA104, read-out: EC50 RSV
in vitro [4] = conditions: dog
Punta Toro virus = test: microbe, parasite or virus in culture; format: cell-based; conditions: Punta Toro virus, Vero 76, read-out: EC50 Punta Toro virus
Influenza A H1N1 = test: microbe, parasite or virus in culture; format: cell-based; conditions: Influenza A virus, H1N1, MDCK, read-out: EC50 Influenza A H1N1

Nc1cc2nc[nH]c2c(=O)[nH]1 [3-Deazaguanine, reference compound]
EC50 (Measles): 2.4 µM | CC50 (in vitro [1]): > 100 µM

O=c1cnn([C@@H]2O[C@H](CO)[C@@H](O)[C@H]2O)c(=O)[nH]1 [Compound 6-Azauridine, 6-Azauridine, reference compound]
CC50 (in vitro [2]): 10 µM | EC50 (Yellow Fever Virus): 0.29 µM

NC(=O)c1ncn([C@@H]2O[C@H](CO)[C@@H](O)[C@H]2O)n1 [Ribavirin, reference compound]
EC50 (Rift Valley virus): 9.1 µM | EC50 [3]: 12 µM | CC50 (in vitro [4]): > 320 µM | EC50 (Punta Toro virus): 11 µM | EC50 (Influenza A H1N1): 7.5 µM
